Data on 32 compounds can be found in patent US8772290B2, “Alpha-arylmethoxyacrylate derivative, preparation method thereof, and pharmaceutical composition containing same” (Oscotech Inc., priority 2010, dated 2014).

In the first assay the test system is HIF. The assay is described as follows: Assay for inhibitory activity against HIF activity (HIF1 luciferase reporter cell line). It is filed as cell-based, human. The conditions noted are these: HEK293 HIF1 reporter cell line, 1% oxygen, 6 hours, luciferase activity 50% inhibited. From the text:
In order to assay the compounds of the present invention for inhibitory activity against HIF activity, the HIF1 reporter plasmid (Panomics) that is designed to control the expression of luciferase by HIF was employed. The HIF1 reporter plasmid and the pTK-Hyg plasmid (Clontech), which carries a hygromycin resistant gene, were co-transfected into the HEK293 cell line (the Korean Cell Line Bank, KCLB No. 21573), derived from the human kidney, with the aid of Effectene transfection reagent (Qiagen). Then, the cells were cultured for 3 weeks on a medium containing 200 μg/mL hygromycin to select transformants resistant to hygromycin. The cell colonies derived from single cells were transferred to 24-well plates to secure a reporter cell line. The cells were seeded at a density of 4×10^4 cells/well into 96-well plates containing DMEM and incubated for 24 hours before treatment with the compounds of the present invention at a concentration of 25 μM, 5 μM, 1 μM, 200 nM, 40 nM, 8 nM, 1.6 nM, 320 pM, 64 pM, 12.8 pM, 2.56 pM, 512 fM, 102 fM, 20.4 fM, or an amount between any two concentrations above as shown in FIGS. 1A to 1C. Under 1% oxygen condition, the cells were incubated for 6 hours and then, the medium was removed. The cells were lyzed by incubation for 5 min with 100 μL of the mixture of Bright-Glo™ luciferase assay buffer and Bright-Glo™ luciferase assay substrate (Promega). The whole cell lysate was transferred to 96-well, white plates (PerkinElmer) and measured for luminescence using Victor™ 3 (PerkinElmer). From the luminescence measurements, IC50 (a concentration of the compound at which luciferase activity was 50% inhibited) was calculated using the GraphPad Prism™ 4 program. The results are summarized in Table 2 and illustrated in FIGS. 1A to 1C.
For “(E)-methyl 2-(2-((3-hydroxy-5-(2-phenoxyethoxy)phenoxy)methyl)-phenyl)-3-methoxyacrylate [Compound 20]”, inhibition was half-maximal at 6060 nM (IC50).

Still in this assay, the particulars now being: Homo sapiens; HEK293 HIF1 reporter cell line, 1% oxygen, 6 hours, luciferase activity 50% inhibited.
`CO/C=C(/C(=O)OC)c1ccccc1COc1ccc(/C(C)=N/OCc2ccccc2)cc1` [Compound 17, (E)-methyl 2-(2-((4-((E)-1-(benzyloxyimino)ethyl)phenoxy)methyl)-phenyl)-3-methoxyacrylate]: the IC50 (commonly the concentration at which inhibition is half-maximal) came to 370 nM. Compound `CO/C=C(/C(=O)OC)c1ccccc1COc1ccc(/C=N/OCC2CC2)cc1C` [Compound 67, (E)-methyl 2-(2-((4-((E)-(cyclopropylmethoxyimino)methyl)-2-methylphenoxy)methyl)phenyl)-3-methoxyacrylate] registered an IC50 of 60 nM.

In turn, `CO/C=C(/C(=O)OC)c1ccccc1COc1cccc(OCCO)c1` [Compound 12, (E)-methyl 2-(2-((3-(2-hydroxyethoxy)phenoxy)methyl)phenyl)-3-methoxyacrylate] showed a concentration for half-maximal inhibition (IC50) of 5990 nM. `CO/C=C(/C(=O)OC)c1ccccc1COc1cccc(/C=N/N2CCOCC2)c1` [Compound 25, (E)-methyl 3-methoxy-2-(2-((3-((E)-(morpholinoimino)methyl)phenoxy)-methyl)phenyl)acrylate] registered a half-maximal inhibitory concentration (IC50) of 440 nM. `CO/C=C(/C(=O)OC)c1ccccc1COc1cc(F)cc(OCc2ccc([N+](=O)[O-])cc2)c1` [Compound 24, (E)-methyl 2-(2-((3-fluoro-5-(4-nitrobenzyloxy)phenoxy)methyl)phenyl)-3-methoxyacrylate] came in with an IC50 of 640 nM.

As for `CO/C=C(/C(=O)OC)c1ccccc1COc1cc(C)c(/C=N/OCc2cccc(OC)c2)cc1C` [Compound 72, (E)-methyl 2-(2-((4-((E)-(3-methoxybenzyloxyimino)methyl)-2,5-dimethylphenoxy)methyl)phenyl)-3-methoxyacrylate], inhibition was half-maximal at 180 nM (IC50). Same read-out and setting: the figure for `CO/C=C(/C(=O)OC)c1ccccc1COc1cc(/C(C)=N/Nc2ccccc2)ccc1OC` [Compound 48, (E)-methyl 2-(2-((2-methoxy-5-((E)-1-(phenylhydrazono)ethyl)phenoxy)-methyl)phenyl)-3-methoxyacrylate] is 8580 nM; for `CO/C=C(/C(=O)OC)c1ccccc1COc1ccc(/C=N/OCc2ccc(C)cc2)cc1C` [Compound 60, (E)-methyl 2-(2-((2-methyl-4-((E)-(4-methylbenzyloxyimino)methyl)-phenoxy)methyl)phenyl)-3-methoxyacrylate] it is 110 nM.

For `CC/C(=N\N1CCOCC1)c1cc(C)c(OCc2ccccc2/C(=C\OC)C(=O)OC)cc1C` [Compound 30, (E)-methyl 2-(2-((2,5-dimethyl-4-((E)-1-(morpholinoimino)propyl)-phenoxy)methyl)phenyl)-3-methoxyacrylate], it took 4140 nM to reach half-maximal inhibition (IC50).

For the compound `CO/C=C(/C(=O)OC)c1ccccc1COc1cccc(/C=N/OCCN2CCCCC2)c1` [Compound 10, (E)-methyl 3-methoxy-2-(2-((3-((E)-(2-(piperidin-1-yl)ethoxyimino)methyl)phenoxy)methyl)phenyl)acrylate], the IC50 was determined as 7070 nM.

Turning to `CCCO/N=C/c1cccc(OCc2ccccc2/C(=C\OC)C(=O)OC)c1` [Compound 14, (E)-methyl 3-methoxy-2-(2-((3-((E)-(propoxyimino)methyl)phenoxy)-methyl)phenyl)acrylate], the IC50 came out at 19900 nM.

The compound `CO/C=C(/C(=O)OC)c1ccccc1COc1ccc(/C=N/OCCc2ccccc2)cc1C` [Compound 59, (E)-methyl 2-(2-((2-methyl-4-((E)-(phenylethoxyimino)methyl)phenoxy)-methyl)phenyl)-3-methoxyacrylate] came in with an IC50 of 261 nM. Still for that read-out and setting: for `CO/C=C(/C(=O)OC)c1ccccc1COc1cccc(OCc2ccncc2)c1` [Compound 27, (E)-methyl 2-(2-((3-(pyridin-4-ylmethoxy)phenoxy)methyl)phenyl)-3-methoxyacrylate] the value was 340 nM. Compound `CO/C=C(/C(=O)OC)c1ccccc1COc1ccc(/C(C)=N/O)cc1OC` [Compound 34, (E)-methyl 2-(2-((4-((E)-1-(hydroxyimino)ethyl)-2-methoxyphenoxy)-methyl)phenyl)-3-methoxyacrylate] had a 50% inhibitory concentration (IC50) of 4480 nM. Same read-out and setting: the figure for `CO/C=C(/C(=O)OC)c1ccccc1COc1cc(C)c(/C=N/OCC2CO2)cc1C` (centres unmarked) [Compound 52, (E)-methyl 2-(2-((2,5-dimethyl-4-((E)-(oxirane-2-ylmethoxyimino)-methyl)phenoxy)methyl)phenyl)-3-methoxyacrylate] is 2250 nM; for `CO/C=C(/C(=O)OC)c1ccccc1COc1cc(/C=N/OCc2ccccc2)ccc1OC` [Compound 39, (E)-methyl 2-(2-((5-((E)-(benzyloxyimino)methyl)-2-methoxyphenoxy)-methyl)phenyl)-3-methoxyacrylate] it is 1410 nM; for `CO/C=C(/C(=O)OC)c1ccccc1COc1cc(C)c(-c2cnco2)cc1C` [Compound 81, (E)-methyl 3-methoxy-2-(2-((2,5-dimethyl-4-(oxazol-5-yl)phenoxy)-methyl)phenyl)acrylate] it is 37 nM. `CO/C=C(/C(=O)OC)c1ccccc1COc1cccc(/C=N/Oc2ccccc2)c1` [Compound 47, (E)-methyl 2-(2-((3-((E)-1-(phenoxyimino)methyl)phenoxy)methyl)-phenyl)-3-methoxyacrylate]: the IC50 worked out at 30 nM. Same read-out and setting: the figure for `CO/C=C(/C(=O)OC)c1ccccc1COc1cc(C)c(/C=N/OCCN2CCCCC2)cc1C` [Compound 54, (E)-methyl 2-(2-((2,5-dimethyl-4-((E)-(2-(piperidin-1-yl)ethoxyimino)-methyl)phenoxy)methyl)phenyl)-3-methoxyacrylate] is 6630 nM; for `CO/C=C(/C(=O)OC)c1ccccc1COc1cc(C)c(/C(C)=N/OCc2ccccn2)cc1C` [Compound 79, (E)-methyl 2-(2-((2,5-dimethyl-4-((E)-1-(pyridin-2-ylmethoxyimino)-ethyl)phenoxy)methyl)phenyl)-3-methoxyacrylate] it is 61 nM; for `CO/C=C(/C(=O)OC)c1ccccc1COc1cc(C)c(/C(COC)=N/OC)cc1C` [Compound 80, (E)-methyl 3-methoxy-2-(2-((4-((Z)-2-methoxy-1-(methoxyimino)ethyl)-2,5-dimethylphenoxy)methyl)phenyl)acrylate] it is 9 nM. For the compound `CO/C=C(/C(=O)OC)c1ccccc1COc1ccc(/C=N/O)cc1C` [Compound 31, (E)-methyl 2-(2-((4-((E)-(hydroxyimino)methyl)-2-methylphenoxy)-methyl)phenyl)-3-methoxyacrylate], half-maximal inhibition (IC50) was put at 1730 nM.

Turning to `CO/C=C(/C(=O)OC)c1ccccc1COc1ccc(F)cc1` [Compound 19, (E)-methyl 2-(2-((4-fluorophenoxy)methyl)phenyl)-3-methoxyacrylate], the half-maximal inhibitory concentration (IC50) was 920 nM. `CO/C=C(/C(=O)OC)c1ccccc1COc1cc(/C(C)=N/O)ccc1OC` [Compound 37, (E)-methyl 2-(2-((5-((E)-1-(hydroxyimino)ethyl)-2-methoxyphenoxy)-methyl)phenyl)-3-methoxyacrylate] showed an IC50 of 7220 nM. The same measure, in the same setting: the figure for `CO/C=C(/C(=O)OC)c1ccccc1COc1cc(C)c(/C=N/OCC2CC2)cc1C` [Compound 68, (E)-methyl 2-(2-((4-((E)-(cyclopropylmethoxyimino)methyl)-2,5-dimethylphenoxy)methyl)phenyl)-3-methoxyacrylate] is 7 nM. The same measure, in the same setting: for `CO/C=C(/C(=O)OC)c1ccccc1COc1cc(C)c(/C=N/OCCOc2ccccc2)cc1C` [Compound 51, (E)-methyl 2-(2-((2,5-dimethyl-4-((E)-(2-phenoxyethoxyimino)methyl)-phenoxy)methyl)phenyl)-3-methoxyacrylate] the value was 20 nM; for `CCCOc1c(F)ccc(OCc2ccccc2/C(=C\OC)C(=O)OC)c1F` [Compound 65, (E)-methyl 2-(2-((2,4-difluoro-3-propoxyphenoxy)methyl)phenyl)-3-methoxyacrylate], 1000 nM. Regarding `CO/C=C(/C(=O)OC)c1ccccc1COc1cc(/C(C)=N/OCc2ccccc2)ccc1OC` [Compound 38, (E)-methyl 2-(2-((5-((E)-1-(benzyloxyimino)ethyl)-2-methoxyphenoxy)-methyl)phenyl)-3-methoxyacrylate], the concentration for half-maximal inhibition (IC50) came out at 1670 nM. `CCO/N=C(\C)c1cc(C)c(OCc2ccccc2/C(=C\OC)C(=O)OC)cc1C` [Compound 78, (E)-methyl 2-(2-((2,5-dimethyl-4-((E)-1-(ethoxyimino)ethyl)phenoxy)-methyl)phenyl)-3-methoxyacrylate] returned a concentration for half-maximal inhibition (IC50) of 20 nM. Consider `CO/C=C(/C(=O)OC)c1ccccc1COc1cc(F)cc(OCc2ccccc2)c1` [Compound 21, (E)-methyl 2-(2-((3-(benzyloxy)-5-fluorophenoxy)methyl)phenyl)-3-methoxyacrylate], for which the IC50 worked out at 490 nM.

On to `CCCO/N=C(\C)c1ccc(OCc2ccccc2/C(=C\OC)C(=O)OC)c(OC)c1` [Compound 35, (E)-methyl 2-(2-((4-((E)-1-(propoxyimino)ethyl)-2-methoxyphenoxy)-methyl)phenyl)-3-methoxyacrylate], for which the midpoint of inhibition, the IC50, lay at 1920 nM.
